In article PMC11997307, “Rat Sarcoma (RAS)-Protein-Targeting Synthetic Cell-Penetrating Peptide as an Anticancer Biomaterial” (Biomaterials Research, 2025):

Experiments:
[1] = test system: MDA-MB-231 cells; assay: Scratch wound migration assay; assay type: cell-based, human; conditions: MDA-MB-231, serum-starved monolayer, 6-72 h
Experimental: To assess MDA-MB-231 cell migration, 2 methods were employed: a Transwell migration assay and a scratch assay. For the Transwell migration assay, 24-well Transwell plates (8-μm pore size; Costar, Corning Incorporated, Corning, NY, USA) were used to evaluate the invasive potential of the cells. […] Following a 6-h incubation period, nonmigratory cells were carefully removed from the upper surface of the membrane using a PBS-soaked cotton swab. The cells that successfully migrated through the membrane were fixed in methanol for 10 min, and Giemsa staining was used to visualize them. Images were captured using an Olympus DP72 camera at ×100 magnification, and the number of migrated cells in the treated samples was compared with that in the control samples. For the scratch assay, MDA-MB-231 cells (1 × 10^6 cells) were cultured in 6-well plates until they reached confluence. The cells were rinsed with PBS and incubated overnight in serum-free medium. A sterile 200-μl plastic pipette tip was used to create a linear scratch in the center of the monolayer. […] Images were taken immediately after scratching and again after 6, 24, 48, and 72 h of incubation using an Olympus CKX41 inverted microscope at ×20 magnification to evaluate the distance the cells migrated from the wound edge.

[2] = target: T1, integrin alpha 3 (Homo sapiens, UniProt P26006); assay: SPR (Biacore) binding of RBP to immobilized integrin alpha 3 (selectivity control); conditions: CM5 chip, integrin alpha 3 immobilized, 11 concentrations of RBP
T1 sequence (P26006 33-1051): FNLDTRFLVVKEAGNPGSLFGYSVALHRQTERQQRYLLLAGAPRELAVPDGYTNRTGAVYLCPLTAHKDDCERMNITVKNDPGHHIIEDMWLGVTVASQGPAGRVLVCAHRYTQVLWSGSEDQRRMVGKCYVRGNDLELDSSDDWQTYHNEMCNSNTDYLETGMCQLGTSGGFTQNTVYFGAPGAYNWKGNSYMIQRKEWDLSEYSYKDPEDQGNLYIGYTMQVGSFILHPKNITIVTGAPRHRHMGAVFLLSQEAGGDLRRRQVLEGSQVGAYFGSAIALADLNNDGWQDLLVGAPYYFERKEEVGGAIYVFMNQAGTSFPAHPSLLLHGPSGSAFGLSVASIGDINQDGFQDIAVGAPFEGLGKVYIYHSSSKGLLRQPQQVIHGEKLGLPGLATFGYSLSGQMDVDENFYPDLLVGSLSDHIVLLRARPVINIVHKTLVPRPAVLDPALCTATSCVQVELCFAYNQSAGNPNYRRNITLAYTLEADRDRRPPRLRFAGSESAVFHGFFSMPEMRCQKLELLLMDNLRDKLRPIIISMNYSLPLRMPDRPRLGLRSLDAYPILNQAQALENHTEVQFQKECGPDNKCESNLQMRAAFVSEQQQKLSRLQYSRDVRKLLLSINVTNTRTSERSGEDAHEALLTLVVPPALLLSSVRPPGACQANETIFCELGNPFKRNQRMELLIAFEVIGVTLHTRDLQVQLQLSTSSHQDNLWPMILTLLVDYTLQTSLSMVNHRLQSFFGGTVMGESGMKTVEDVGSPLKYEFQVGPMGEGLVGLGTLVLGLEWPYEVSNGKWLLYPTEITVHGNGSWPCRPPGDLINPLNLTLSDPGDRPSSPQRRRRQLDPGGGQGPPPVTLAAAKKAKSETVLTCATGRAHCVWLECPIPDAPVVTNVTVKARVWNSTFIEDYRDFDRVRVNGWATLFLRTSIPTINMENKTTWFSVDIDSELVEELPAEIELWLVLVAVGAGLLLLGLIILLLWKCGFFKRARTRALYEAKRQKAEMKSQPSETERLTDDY
Experimental: N-Hydroxysuccinimide (NHS) and EDC were used as cross-linkers. The remaining unreacted active groups on the dextran surface were blocked with ethanolamine. The running buffer consisted of 150 mM NaCl, 5 mM EDTA, and 0.05% Tween 20 in 10 mM Hepes, pH 7.4. A CM5 chip without immobilized protein was used as the blank surface in the Biacore assay (Biacore T100, GE Healthcare Bio-Sciences AB, Uppsala, Sweden). […] The dissociation phase was conducted for 5 min.

[3] = test system: phospho-c-RAF and phospho-ERK1/2 in MDA-MB-231 cells; assay: Western blot of RAS-MAPK pathway, MDA-MB-231; assay type: cell-based, human; conditions: MDA-MB-231, 10-250 μM RBP 6 h then 50 ng/ml EGF 10 min
Experimental: Protein expression was confirmed via Western blot analysis. Briefly, 9 × 10^5 cells were cultured in 100-mm-diameter dishes. When they reached 90% confluence, the cells were starved for 18 h in serum-free medium. […] At the end of the culture period, the cells were lysed for 20 min in cold lysis buffer on ice. Protein concentration was measured using bicinchoninic acid protein assays (Thermo Fisher Scientific, MA, USA). Equal aliquots of protein (40 μg) were boiled for 7 min in 5× sample buffer and separated by 10% SDS–PAGE. Proteins were transferred onto nitrocellulose membranes, followed by washing with Tris-buffered saline (TBS) containing 0.1% Tween 20 (TBST). The membranes were then blocked for 60 min at room temperature with 5% skim milk in TBST. Following the washing procedure, the membranes were incubated with primary antibodies (RAS, phospho-ERK1/2, ERK1/2, phospho-RAF proto-oncogene serine/threonine-protein kinase [phospho-c-RAF; S338], c-RAF [Cell Signaling Technology, Beverly, MA, USA], and GAPDH [Santa Cruz Biotechnology, Inc., Santa Cruz, CA, USA]) diluted in TBST containing 5% skim milk at 4 °C for 18 h. […] The membranes were subsequently washed 3 more times, and protein bands were detected using chemiluminescence reagents (West Pico PLUS, Thermo Fisher Scientific, USA).

[4] = test system: HT-29 cells; assay: Cell viability, CCK-8 assay, HT-29; assay type: cell-based, human; conditions: HT-29 (KRAS wild-type), CCK-8, 0-1,000 μM RBP, 24, 48 or 72 h, triplicate
Experimental: (§1) The viability of the cells was determined via Cell Counting Kit-8 (CCK-8; Dojindo Laboratories, Kumamoto, Japan) assay. The cells were plated in 96-well culture plates at a density of 5 × 10^3 cells per well and incubated for 24 h at 37 °C in a humidified incubator with 5% CO2. […] After incubation, the medium was replaced with fresh medium containing 10% (v/v) CCK-8 reagent, and the cells were incubated for 2 h. Absorbance was measured at 450 nm using a microplate reader. All experiments were performed in triplicate.

[5] = test system: MCF-7 cells; assay: Cell viability, CCK-8 assay, MCF-7; assay type: cell-based, human; conditions: MCF-7 (KRAS wild-type), CCK-8, 0-1,000 μM RBP, 24, 48 or 72 h, triplicate
Experimental: as §1

C[C@@H](O)[C@H](NC(=O)[C@H](CO)NC(=O)[C@H](CS)NC(=O)[C@H](CCCCN)NC(=O)CN)C(=O)N[C@@H](CCCNC(=N)N)C(=O)NCC(=O)N[C@@H](CCCNC(=N)N)C(=O)N[C@@H](CCCCN)C(=O)N[C@@H](CS)C(=O)N[C@@H](CS)C(=O)N[C@@H](CCCNC(=N)N)C(=O)N[C@@H](CCCNC(=N)N)C(=O)N[C@@H](CCCCN)C(=O)N[C@@H](CCCCN)C(N)=O [RBP]
tumor cell migration in scratch assay [1]: significantly inhibited | binding to unrelated receptor integrin alpha 3 [2]: did not bind | activation of RAF (phospho-c-RAF) [3]: effectively inhibited | phosphorylation of ERK1/2 ([3]; p-ERK/ERK, n = 3): effectively inhibited | decrease in the percentage of viable cells [4]: not significant | decrease in the percentage of viable cells [5]: not significant
